# Measured values taken from ChEMBL document CHEMBL5131569, “SAGE-718: A First-in-Class N-Methyl-d-Aspartate Receptor Positive Allosteric Modulator for the Potential Treatment of Cognitive Impairment” (J Med Chem, 2022).
# Assays:
# [1] = Metabolic stability in rat liver microsomes assessed as intrinsic clearance at 10 uM preincubated for 5 mins followed by NADPH addition and measured upto 65 mins by LC-MS/MS analysis; type: ADME, Microsome; conditions: time < 70 min, read-out: CLH
# [2] = biological target: Glutamate NMDA receptor; GRIN1/GRIN2A (Homo sapiens, UniProt Q05586+Q12879); test: Positive allosteric modulation of recombinant human GluN1/GluN2A receptor stably expressed in HEK293 cells assessed as increase in glycine/L-glutamate-induced channel current at -70 mV holding potential by whole cell patch clamp method; type: cell-based
# Sequence of Glutamate NMDA receptor; GRIN1/GRIN2A (Q12879 whole entry, other chains not shown): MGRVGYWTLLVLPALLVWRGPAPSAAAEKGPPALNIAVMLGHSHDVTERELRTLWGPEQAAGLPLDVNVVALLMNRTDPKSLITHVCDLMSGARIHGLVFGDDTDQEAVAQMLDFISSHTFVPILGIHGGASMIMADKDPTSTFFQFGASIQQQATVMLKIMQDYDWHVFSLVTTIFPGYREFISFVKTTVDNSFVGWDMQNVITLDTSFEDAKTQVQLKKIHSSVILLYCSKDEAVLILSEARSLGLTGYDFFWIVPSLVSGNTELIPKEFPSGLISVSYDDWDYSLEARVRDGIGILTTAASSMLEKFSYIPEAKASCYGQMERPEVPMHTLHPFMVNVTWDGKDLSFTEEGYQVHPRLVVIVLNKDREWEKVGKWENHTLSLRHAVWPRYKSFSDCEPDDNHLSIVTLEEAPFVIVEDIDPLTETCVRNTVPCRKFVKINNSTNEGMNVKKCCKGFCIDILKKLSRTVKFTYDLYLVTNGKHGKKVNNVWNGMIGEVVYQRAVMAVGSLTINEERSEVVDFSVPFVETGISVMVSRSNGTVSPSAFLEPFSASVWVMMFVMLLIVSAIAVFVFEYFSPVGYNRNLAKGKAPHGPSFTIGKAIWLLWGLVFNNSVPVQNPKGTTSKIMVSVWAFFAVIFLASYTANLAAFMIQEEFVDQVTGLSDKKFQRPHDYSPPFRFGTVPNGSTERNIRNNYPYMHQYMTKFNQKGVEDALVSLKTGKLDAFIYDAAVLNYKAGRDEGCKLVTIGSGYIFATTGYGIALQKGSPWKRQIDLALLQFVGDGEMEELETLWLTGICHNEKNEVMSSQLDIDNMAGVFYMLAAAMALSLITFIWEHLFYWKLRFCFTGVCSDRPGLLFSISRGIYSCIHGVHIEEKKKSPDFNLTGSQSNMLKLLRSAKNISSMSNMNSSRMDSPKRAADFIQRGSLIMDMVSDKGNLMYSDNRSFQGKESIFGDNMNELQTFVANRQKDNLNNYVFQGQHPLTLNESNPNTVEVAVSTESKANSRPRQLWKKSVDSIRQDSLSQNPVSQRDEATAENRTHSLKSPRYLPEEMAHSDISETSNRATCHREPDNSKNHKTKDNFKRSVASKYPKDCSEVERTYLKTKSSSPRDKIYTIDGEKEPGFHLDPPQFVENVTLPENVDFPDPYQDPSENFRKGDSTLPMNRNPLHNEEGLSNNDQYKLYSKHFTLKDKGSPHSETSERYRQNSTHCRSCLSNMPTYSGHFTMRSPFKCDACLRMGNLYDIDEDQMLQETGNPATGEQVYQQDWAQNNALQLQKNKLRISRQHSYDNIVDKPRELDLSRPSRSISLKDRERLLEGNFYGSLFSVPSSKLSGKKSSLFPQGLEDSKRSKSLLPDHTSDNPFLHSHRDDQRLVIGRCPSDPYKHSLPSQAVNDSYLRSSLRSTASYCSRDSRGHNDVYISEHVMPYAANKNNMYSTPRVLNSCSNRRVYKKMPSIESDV
# [3] = Lipophilicity, logD of compound in MeOH at 20 uM by HPLC analysis; type: physicochemical
# [4] = Metabolic stability in mouse liver microsomes assessed as intrinsic clearance at 10 uM preincubated for 5 mins followed by NADPH addition and measured upto 65 mins by LC-MS/MS analysis; type: ADME, Microsome; conditions: time < 70 min, read-out: CLH
# [5] = Metabolic stability in dog hepatocytes assessed as clearance at 10 uM measured upto 120 mins by LC-MS/MS analysis; type: ADME, cell-based, Canis lupus familiaris, Hepatocyte; conditions: 2 h
# [6] = Metabolic stability in human liver microsomes assessed as intrinsic clearance at 10 uM preincubated for 5 mins followed by NADPH addition and measured upto 65 mins by LC-MS/MS analysis; type: ADME, Microsome; conditions: time < 70 min, read-out: CLH
# [7] = Clearance in CD-1 mouse by LC-MS/MS analysis; type: ADME; conditions: in vivo
# [8] = Clearance in Beagle dog by LC-MS/MS analysis; type: ADME, Canis lupus familiaris; conditions: in vivo
# [9] = Oral bioavailability in Beagle dog by LC-MS/MS analysis; type: ADME, organism-based, Canis lupus familiaris; conditions: in vivo
# [10] = Ratio of drug concentration in ip dosed CD-1 mouse brain to plasma after 1 hr by LC-MS/MS analysis; type: ADME, organism-based; conditions: brain and plasma
# Cytochrome P450 2B6 = biological target: T1, Cytochrome P450 2B6 (Homo sapiens, UniProt P20813); test: Inhibition of CYP2B6 (unknown origin); type: ADME
# T1 sequence (P20813 whole entry): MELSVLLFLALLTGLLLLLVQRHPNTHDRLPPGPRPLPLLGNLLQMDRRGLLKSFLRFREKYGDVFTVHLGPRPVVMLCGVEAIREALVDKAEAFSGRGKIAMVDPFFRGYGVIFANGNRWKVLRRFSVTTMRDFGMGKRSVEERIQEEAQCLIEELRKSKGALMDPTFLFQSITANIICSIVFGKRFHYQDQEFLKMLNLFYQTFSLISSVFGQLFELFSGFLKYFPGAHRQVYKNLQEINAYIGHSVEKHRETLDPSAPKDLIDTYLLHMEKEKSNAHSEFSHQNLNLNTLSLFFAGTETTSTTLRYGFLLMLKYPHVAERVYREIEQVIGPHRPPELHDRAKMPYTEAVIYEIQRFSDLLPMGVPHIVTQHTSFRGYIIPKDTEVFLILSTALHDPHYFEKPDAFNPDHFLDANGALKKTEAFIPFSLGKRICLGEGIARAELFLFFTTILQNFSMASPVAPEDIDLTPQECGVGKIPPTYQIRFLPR
# Cytochrome P450 2C8 = biological target: T2, Cytochrome P450 2C8 (Homo sapiens, UniProt P10632); test: Inhibition of CYP2C8 (unknown origin); type: ADME
# T2 sequence (P10632 whole entry): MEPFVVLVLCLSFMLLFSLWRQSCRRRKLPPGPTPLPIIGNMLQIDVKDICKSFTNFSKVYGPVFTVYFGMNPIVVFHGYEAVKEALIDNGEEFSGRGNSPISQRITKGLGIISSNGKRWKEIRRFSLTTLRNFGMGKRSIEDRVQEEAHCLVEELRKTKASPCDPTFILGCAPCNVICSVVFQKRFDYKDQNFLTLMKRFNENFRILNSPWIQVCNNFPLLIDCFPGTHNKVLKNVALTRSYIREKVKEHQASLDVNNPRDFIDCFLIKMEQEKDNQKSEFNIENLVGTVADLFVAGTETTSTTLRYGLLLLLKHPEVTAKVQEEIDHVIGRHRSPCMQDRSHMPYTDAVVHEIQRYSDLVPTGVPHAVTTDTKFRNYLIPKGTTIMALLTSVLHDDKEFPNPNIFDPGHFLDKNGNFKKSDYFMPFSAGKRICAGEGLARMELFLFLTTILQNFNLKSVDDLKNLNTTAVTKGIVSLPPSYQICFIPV
# Cytochrome P450 2C19 = Cytochrome P450 2C19 (Homo sapiens, UniProt P33261); test: Inhibition of CYP2C19 (unknown origin); type: ADME
# Sequence of Cytochrome P450 2C19 (P33261 whole entry): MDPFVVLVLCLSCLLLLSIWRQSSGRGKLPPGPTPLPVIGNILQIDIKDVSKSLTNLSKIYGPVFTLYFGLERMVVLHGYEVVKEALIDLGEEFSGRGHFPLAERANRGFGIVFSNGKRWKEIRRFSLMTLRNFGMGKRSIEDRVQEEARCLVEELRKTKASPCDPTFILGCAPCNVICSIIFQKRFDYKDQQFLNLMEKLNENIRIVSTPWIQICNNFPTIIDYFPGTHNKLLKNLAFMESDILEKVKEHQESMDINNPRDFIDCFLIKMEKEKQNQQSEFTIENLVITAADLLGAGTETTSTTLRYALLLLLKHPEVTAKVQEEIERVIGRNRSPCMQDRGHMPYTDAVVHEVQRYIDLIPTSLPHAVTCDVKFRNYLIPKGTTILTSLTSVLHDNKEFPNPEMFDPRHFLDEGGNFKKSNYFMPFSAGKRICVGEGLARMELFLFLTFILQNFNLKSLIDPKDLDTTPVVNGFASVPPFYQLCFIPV
# Cytochrome P450 3A4 = Cytochrome P450 3A4 (Homo sapiens, UniProt P08684); test: Inhibition of CYP3A4 (unknown origin); type: ADME
# Sequence of Cytochrome P450 3A4 (P08684 whole entry): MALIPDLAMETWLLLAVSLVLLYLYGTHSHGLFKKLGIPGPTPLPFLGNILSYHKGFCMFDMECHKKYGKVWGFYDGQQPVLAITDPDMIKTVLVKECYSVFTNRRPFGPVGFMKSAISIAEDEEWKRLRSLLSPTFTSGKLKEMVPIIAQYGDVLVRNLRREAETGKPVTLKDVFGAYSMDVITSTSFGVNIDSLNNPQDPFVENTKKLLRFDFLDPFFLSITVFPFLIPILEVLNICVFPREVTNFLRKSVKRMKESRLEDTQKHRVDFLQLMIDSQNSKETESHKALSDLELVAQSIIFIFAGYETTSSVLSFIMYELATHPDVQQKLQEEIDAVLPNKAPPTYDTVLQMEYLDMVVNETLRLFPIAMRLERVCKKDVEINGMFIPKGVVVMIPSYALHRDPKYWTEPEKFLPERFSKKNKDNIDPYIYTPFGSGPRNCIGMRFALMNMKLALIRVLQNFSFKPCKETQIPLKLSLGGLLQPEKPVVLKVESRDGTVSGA
# [11] = Plasma protein binding in rat after 15 mins by equilibrium dialysis method; type: ADME, cell-free; conditions: read-out: PPB (converted)
# [12] = Plasma protein binding in dog after 15 mins by equilibrium dialysis method; type: ADME, cell-free, Canis lupus familiaris; conditions: read-out: PPB (converted)
# [13] = biological target: Sodium channel protein type 5 subunit alpha (Homo sapiens, UniProt Q14524); test: Inhibition of NaV1.5 (unknown origin)
# Sequence of Sodium channel protein type 5 subunit alpha (Q14524 whole entry): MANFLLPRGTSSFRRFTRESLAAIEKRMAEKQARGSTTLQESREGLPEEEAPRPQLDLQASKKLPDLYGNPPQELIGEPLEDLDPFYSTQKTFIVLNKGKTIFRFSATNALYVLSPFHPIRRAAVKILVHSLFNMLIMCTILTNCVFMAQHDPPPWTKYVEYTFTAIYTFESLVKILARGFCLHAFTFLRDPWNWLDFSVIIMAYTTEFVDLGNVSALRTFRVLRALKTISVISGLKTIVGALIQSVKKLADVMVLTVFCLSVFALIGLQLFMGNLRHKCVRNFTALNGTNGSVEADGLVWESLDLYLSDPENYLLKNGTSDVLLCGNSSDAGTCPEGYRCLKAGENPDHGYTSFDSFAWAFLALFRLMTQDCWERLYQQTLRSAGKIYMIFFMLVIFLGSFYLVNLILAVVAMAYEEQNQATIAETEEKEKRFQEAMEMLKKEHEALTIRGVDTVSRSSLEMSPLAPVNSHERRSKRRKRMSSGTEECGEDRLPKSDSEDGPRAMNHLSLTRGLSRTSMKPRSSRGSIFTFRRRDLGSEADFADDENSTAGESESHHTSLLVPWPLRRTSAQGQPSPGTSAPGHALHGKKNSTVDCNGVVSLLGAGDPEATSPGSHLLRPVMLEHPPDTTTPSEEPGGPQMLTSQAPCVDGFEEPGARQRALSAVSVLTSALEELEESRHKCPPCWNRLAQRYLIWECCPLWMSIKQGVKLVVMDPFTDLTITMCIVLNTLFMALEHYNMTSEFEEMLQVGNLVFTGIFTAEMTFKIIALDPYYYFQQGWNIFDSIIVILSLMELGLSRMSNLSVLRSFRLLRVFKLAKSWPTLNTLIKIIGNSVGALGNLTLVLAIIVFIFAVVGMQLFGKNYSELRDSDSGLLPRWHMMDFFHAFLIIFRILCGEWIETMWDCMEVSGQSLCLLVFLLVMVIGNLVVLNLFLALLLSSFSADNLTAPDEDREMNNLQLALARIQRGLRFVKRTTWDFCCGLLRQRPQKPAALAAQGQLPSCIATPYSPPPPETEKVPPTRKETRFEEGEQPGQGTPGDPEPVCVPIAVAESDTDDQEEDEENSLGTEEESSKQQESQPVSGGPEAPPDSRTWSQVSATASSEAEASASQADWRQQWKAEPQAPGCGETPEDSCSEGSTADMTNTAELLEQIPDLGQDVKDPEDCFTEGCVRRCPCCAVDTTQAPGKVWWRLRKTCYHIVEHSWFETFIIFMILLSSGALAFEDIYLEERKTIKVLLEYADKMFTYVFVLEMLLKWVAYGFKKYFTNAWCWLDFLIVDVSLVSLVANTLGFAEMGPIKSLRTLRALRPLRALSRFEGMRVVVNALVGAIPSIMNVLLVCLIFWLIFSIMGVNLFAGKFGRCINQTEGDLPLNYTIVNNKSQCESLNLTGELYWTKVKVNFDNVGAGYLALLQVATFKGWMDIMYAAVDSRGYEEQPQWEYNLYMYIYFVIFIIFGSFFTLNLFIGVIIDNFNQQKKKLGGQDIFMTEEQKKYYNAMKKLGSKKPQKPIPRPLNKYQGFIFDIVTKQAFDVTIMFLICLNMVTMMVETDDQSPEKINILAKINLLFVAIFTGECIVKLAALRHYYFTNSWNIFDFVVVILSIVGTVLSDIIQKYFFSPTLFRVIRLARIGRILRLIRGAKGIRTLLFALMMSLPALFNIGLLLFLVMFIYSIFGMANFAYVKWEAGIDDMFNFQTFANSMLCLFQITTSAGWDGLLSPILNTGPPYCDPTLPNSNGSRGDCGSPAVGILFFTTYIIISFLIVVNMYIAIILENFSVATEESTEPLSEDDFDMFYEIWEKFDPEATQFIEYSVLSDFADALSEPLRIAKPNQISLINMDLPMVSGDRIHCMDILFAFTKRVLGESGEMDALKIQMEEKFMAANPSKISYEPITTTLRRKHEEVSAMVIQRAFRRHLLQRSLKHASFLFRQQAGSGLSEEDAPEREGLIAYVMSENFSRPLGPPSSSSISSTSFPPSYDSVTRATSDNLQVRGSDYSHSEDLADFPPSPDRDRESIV
# [14] = biological target: Voltage-gated inwardly rectifying potassium channel KCNH2 (Homo sapiens, UniProt Q12809); test: Inhibition of human ERG; type: toxicity
# [15] = Inhibition of Kv4.3/KChIP2.2 (unknown origin) by patch clamp method; design: species or system Homo sapiens
# [16] = biological target: Potassium voltage-gated channel subfamily A member 5 (Homo sapiens, UniProt P22460); test: Inhibition of Kv1.5 (unknown origin) by patch clamp method
# Sequence of Potassium voltage-gated channel subfamily A member 5 (P22460 whole entry): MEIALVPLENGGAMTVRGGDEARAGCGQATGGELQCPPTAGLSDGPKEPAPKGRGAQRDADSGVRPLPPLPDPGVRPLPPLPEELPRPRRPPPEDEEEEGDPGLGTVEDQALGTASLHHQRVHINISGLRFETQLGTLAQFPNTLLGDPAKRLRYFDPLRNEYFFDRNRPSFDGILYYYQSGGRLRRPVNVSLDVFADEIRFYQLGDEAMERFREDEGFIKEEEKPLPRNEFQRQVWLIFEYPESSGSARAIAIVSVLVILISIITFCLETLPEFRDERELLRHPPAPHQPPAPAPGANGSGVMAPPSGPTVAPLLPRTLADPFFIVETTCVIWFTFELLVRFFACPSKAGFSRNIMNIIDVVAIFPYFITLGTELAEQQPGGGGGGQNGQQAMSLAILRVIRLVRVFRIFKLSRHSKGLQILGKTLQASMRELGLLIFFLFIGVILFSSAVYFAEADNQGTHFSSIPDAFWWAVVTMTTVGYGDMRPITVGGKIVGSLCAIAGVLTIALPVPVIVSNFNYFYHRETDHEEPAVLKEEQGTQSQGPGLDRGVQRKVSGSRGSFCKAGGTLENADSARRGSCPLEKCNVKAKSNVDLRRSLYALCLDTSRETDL
# [17] = biological target: Ionotropic glutamate receptor NMDA 1/2C (Homo sapiens, UniProt Q05586+Q14957); test: Positive allosteric modulation of recombinant human GluN1/GluN2C receptor stably expressed in HEK293 cells assessed as increase in glycine/L-glutamate-induced channel current at -70 mV holding potential by whole cell patch clamp method
# [18] = biological target: Ionotropic glutamate receptor NMDA 1/2D (Homo sapiens, UniProt O15399+Q05586); test: Positive allosteric modulation of recombinant human GluN1/GluN2D receptor stably expressed in HEK293 cells assessed as increase in glycine/L-glutamate-induced channel current at -70 mV holding potential by whole cell patch clamp method
# Mus musculus [19] = test: Reversal of DOI-induced hyperlocomotion in CD-1 mouse assessed as reduction in distance travel at 7.5 mg/kg, ip administered 90 mins prior to DOI induction and measured upto 30 mins post DOI treatment (reference value: 7.8 +/- 0.8 meter); type: functional; conditions: time <= 120 min, 2 h
# Mus musculus [20] = test: Reversal of DOI-induced hyperlocomotion in CD-1 mouse assessed as reduction in distance travel at 10 mg/kg, ip administered 90 mins prior to DOI induction and measured upto 30 mins post DOI treatment (reference value: 7.8 +/- 0.8 meter); type: functional; conditions: time <= 120 min, 2 h
# Mus musculus [21] = test: Reversal of DOI-induced hyperlocomotion in CD-1 mouse assessed as reduction in rearing at 7.5 mg/kg, ip administered 90 mins prior to DOI induction and measured upto 30 mins post DOI treatment (reference value: 59.8 +/- 8.6 Counts); type: functional; conditions: time <= 120 min, 2 h
# Mus musculus [22] = test: Reversal of DOI-induced hyperlocomotion in CD-1 mouse assessed as reduction in rearing at 10 mg/kg, ip administered 90 mins prior to DOI induction and measured upto 30 mins post DOI treatment (reference value: 59.8 +/- 8.6 Counts); type: functional; conditions: time <= 120 min, 2 h
# [23] = Drug concentration in CD-1 mouse plasma at 10 mg/kg, ip administered for 90 mins; type: ADME, organism-based
# [24] = Drug concentration in CD-1 mouse brain at 7.5 mg/kg, ip administered for 90 mins; type: ADME, organism-based; conditions: read-out: Ct
smiles,measurement,setting,value
C[C@H](CC[C@](C)(O)C(F)(F)F)[C@H]1CC[C@H]2[C@@H]3CC=C4C[C@@](C)(O)CC[C@]4(C)[C@H]3CC[C@]12C [DALZANEMDOR],microsomal CLint at 10 µM,[1],11 µL/min/mg
same,EC50,[2],86 nM
same,logD at 20 µM,[3],6.2
same,microsomal CLint at 10 µM,[4],< 1 µL/min/mg
same,CLH,[5],0.9 L/h/kg
same,microsomal CLint at 10 µM,[6],10 µL/min/mg
same,clearance,[7],5 mL/min/kg
same,clearance,[8],3.33 mL/min/kg
same,bioavailability,[9],30%
same,Kp at 1 h,[10],0.2
same,IC50,Cytochrome P450 2B6,> 100 µM
same,IC50,Cytochrome P450 2C8,> 10 µM
same,IC50,Cytochrome P450 2C19,> 100 µM
same,IC50,Cytochrome P450 3A4,> 100 µM
same,fraction unbound at 0.25 h,[11],0.022
same,fraction unbound at 0.25 h,[12],0.028
same,IC50,[13],> 30 µM
same,IC50,[14],> 30 µM
same,IC50,[15],> 30 µM
same,IC50,[16],> 30 µM
same,EC50,[17],150 nM
same,EC50,[18],430 nM
same,Activity,Mus musculus [19],0.4 m
same,Activity,Mus musculus [20],1.1 m
same,Activity,Mus musculus [21],6.1 Counts
same,Activity,Mus musculus [22],7.7 Counts
same,concentration at 1.5 h,[23],3210 ng/mL
same,concentration at 1.5 h,[24],1190 ng/g
